In patent publication US20230219904A1 (SYNGENTA CROP PROTECTION AG, priority 2020, published 2023):

Tests used:
Format in all cases: in vivo
Conditions in all cases: evaluated after 13 days
[1] = system: Abutilon theophrasti (ABUTH); assay: Pre-emergence herbicidal glasshouse test (Table B1)
Method in brief: (§1)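 Potted plants, glasshouse 24/16° C, 14 h light, 65% RH; spray at 1 d (pre) or 8 d (post) post-sowing; 500 g/h default; acetone/water 50:50 + 0.5% Tween 20. Damage read at 13 d, scored 1–5 (5=80-100%, 1=0-19%).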

[2] = system: Amaranthus retoflexus (AMARE); assay: as above
Method in brief: as §1

[3] = system: Echinochloa crus-galh (ECHCG); assay: as above
Method in brief: as §1

[4] = system: Ipomoea hederacea (IPOHE); assay: as above
Method in brief: as §1

Setaria faberi (SETFA) [5] = assay: as above
Method in brief: as §1

[6] = system: Abutilon theophrasti (ABUTH); assay: Post-emergence herbicidal glasshouse test (Table B1)
Method in brief: as §1

[7] = system: Amaranthus retoflexus (AMARE); assay: as above
Method in brief: as §1

[8] = system: Echinochloa crus-galh (ECHCG); assay: as above
Method in brief: as §1

[9] = system: Ipomoea hederacea (IPOHE); assay: as above
Method in brief: as §1

Setaria faberi (SETFA) [10] = assay: as above
Method in brief: as §1

Compound	PRE Application ABUTH, percentage damage on five-point scale ([1]; applied at 500 g/h)	PRE Application AMARE, percentage damage on five-point scale ([2]; applied at 500 g/h)	PRE Application ECHCG, percentage damage on five-point scale ([3]; applied at 500 g/h)	PRE Application IPOHE, percentage damage on five-point scale ([4]; applied)	PRE Application SETFA, percentage damage on five-point scale (Setaria faberi (SETFA) [5]; applied at 500 g/h)	POST Application ABUTH, percentage damage on five-point scale ([6]; applied at 500 g/h)	POST Application AMARE, percentage damage on five-point scale ([7]; applied at 500 g/h)	POST Application ECHCG, percentage damage on five-point scale ([8]; applied at 500 g/h)	POST Application IPOHE, percentage damage on five-point scale ([9]; applied at 500 g/h)	POST Application SETFA, percentage damage on five-point scale (Setaria faberi (SETFA) [10]; applied at 500 g/h)	PRE Application ABUTH, percentage damage on five-point scale ([1]; applied at 125 g/ha)	PRE Application AMARE, percentage damage on five-point scale ([2]; applied at 125 g/ha)	PRE Application ECHCG, percentage damage on five-point scale ([3]; applied at 125 g/ha)	PRE Application IPOHE, percentage damage on five-point scale ([4]; applied at 125 g/ha)	POST Application ABUTH, percentage damage on five-point scale ([6]; applied at 125 g/ha)	POST Application AMARE, percentage damage on five-point scale ([7]; applied at 125 g/ha)	POST Application ECHCG, percentage damage on five-point scale ([8]; applied at 125 g/ha)	POST Application IPOHE, percentage damage on five-point scale ([9]; applied at 125 g/ha)	POST Application SETFA, percentage damage on five-point scale (Setaria faberi (SETFA) [10]; applied at 125 g/ha)	PRE Application SETFA, percentage damage on five-point scale (Setaria faberi (SETFA) [5]; applied at 125 g/ha)
CN(C)c1c(OC(F)(F)F)ccc(C(=O)Nc2nnnn2C)c1Cl [Compound 1.001]	5 (5=80-100%)	5 (5=80-100%)	5 (5=80-100%)	5 (5=80-100%)	5 (5=80-100%)	5 (5=80-100%)	5 (5=80-100%)	5 (5=80-100%)	5 (5=80-100%)	5 (5=80-100%)										
CC(=O)N(C)c1c(OC(F)(F)F)ccc(C(=O)Nc2nnnn2C)c1Cl [Compound 1.003]	5 (5=80-100%)	5 (5=80-100%)	5 (5=80-100%)	1 (1=0-19%)	5 (5=80-100%)	5 (5=80-100%)	5 (5=80-100%)	5 (5=80-100%)	5 (5=80-100%)											
CNc1c(OC(F)(F)F)ccc(C(=O)Nc2nnnn2C)c1Cl [Compound 1.005]	5 (5=80-100%)	5 (5=80-100%)	5 (5=80-100%)	5 (5=80-100%)	5 (5=80-100%)	5 (5=80-100%)	5 (5=80-100%)	5 (5=80-100%)	5 (5=80-100%)	5 (5=80-100%)										
Cc1ncc(C(=O)Nc2c(OC(F)(F)F)ccc(C(=O)Nc3nnnn3C)c2Cl)s1 [Compound 1.010]	5 (5=80-100%)	5 (5=80-100%)	1 (1=0-19%)	2 (2=20-39%)	2 (2=20-39%)	5 (5=80-100%)		5 (5=80-100%)	5 (5=80-100%)	5 (5=80-100%)										
CCC(C)C(=O)Nc1c(OC(F)(F)F)ccc(C(=O)Nc2nnnn2C)c1Cl (centres unmarked) [Compound 1.055]											5 (5=80-100%)	5 (5=80-100%)	5 (5=80-100%)	4 (4=60-79%)	5 (5=80-100%)	5 (5=80-100%)	5 (5=80-100%)	4 (4=60-79%)	5 (5=80-100%)	
Cn1nnnc1NC(=O)c1ccc(OC(F)F)c(NC(=O)c2cccc(Cl)n2)c1Cl [Compound 1.083]											5 (5=80-100%)	5 (5=80-100%)		3 (3=40-59%)	4 (4=60-79%)	4 (4=60-79%)	2 (2=20-39%)	4 (4=60-79%)	4 (4=60-79%)	4 (4=60-79%)
